Source: ChEMBL document CHEMBL1201862, “PubChem BioAssay data set” (2004)
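Interpolation was linear, between the two tested concentrations surrounding the appropriate level; five concentrations were tested over 48 hours in 96-well plates. GI50: concentration for 50% inhibition of growth.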 Calls of active or inactive are those of the source. Rule as the data show it: active = GI50 up to about 1.1 µM and inactive = higher.

What was measured:
Assay in all cases: DTP human tumour cell line panel, 48 h
786-0 = test system: 786-0
A549 = test system: A549
CCRF-CEM = test system: CCRF-CEM
EKVX = test system: EKVX
HCC 2998 = test system: HCC 2998
HCT-116 = test system: HCT-116
M14 = test system: M14
Malme-3M = test system: Malme-3M
NCI-H522 = test system: NCI-H522
RXF 393 = test system: RXF 393
SF-268 = test system: SF-268
SF-539 = test system: SF-539
SK-MEL-28 = test system: SK-MEL-28
SK-MEL-2 = test system: SK-MEL-2
SK-MEL-5 = test system: SK-MEL-5
SK-OV-3 = test system: SK-OV-3
SNB-19 = test system: SNB-19
SW-620 = test system: SW-620
TK-10 = test system: TK-10
U-251 = test system: U-251

| SMILES | GI50 (786-0) | GI50 (A549) | GI50 (CCRF-CEM) | GI50 (EKVX) | GI50 (HCC 2998) | GI50 (HCT-116) | GI50 (M14) | GI50 (Malme-3M) | GI50 (NCI-H522) | GI50 (RXF 393) | GI50 (SF-268) | GI50 (SF-539) | GI50 (SK-MEL-28) | GI50 (SK-MEL-2) | GI50 (SK-MEL-5) | GI50 (SK-OV-3) | GI50 (SNB-19) | GI50 (SW-620) | GI50 (TK-10) | GI50 (U-251) |
| --- | --- | --- | --- | --- | --- | --- | --- | --- | --- | --- | --- | --- | --- | --- | --- | --- | --- | --- | --- | --- |
| Cc1cc2c(cc1Cl)SC(NNC1=NCCN1)=NS2(=O)=O | > 10 µM (inactive) | > 10 µM (inactive) | > 10 µM (inactive) | > 10 µM (inactive) | > 10 µM (inactive) | > 10 µM (inactive) | > 10 µM (inactive) | > 10 µM (inactive) | > 10 µM (inactive) | > 10 µM (inactive) | > 10 µM (inactive) | > 10 µM (inactive) | > 10 µM (inactive) | > 10 µM (inactive) | > 10 µM (inactive) | > 10 µM (inactive) | > 10 µM (inactive) | > 10 µM (inactive) | > 10 µM (inactive) | > 10 µM (inactive) |
| O=C1C2c3[nH]c4ccccc4c3C3CCCCCC3C2C(=O)N1c1ccccc1 (stereo not given) | 44.9 µM (inactive) | 34.4 µM (inactive) | 9.57 µM (inactive) | > 68.1 µM (inactive) | > 56.1 µM (inactive) | 11.2 µM (inactive) | 15.9 µM (inactive) | 9.31 µM (inactive) | 37.7 µM (inactive) | 12.4 µM (inactive) | 39.2 µM (inactive) | 14.4 µM (inactive) | > 59.8 µM (inactive) | 22.9 µM (inactive) | > 100 µM (inactive) | 15.9 µM (inactive) | 25.8 µM (inactive) | 24.8 µM (inactive) | 35.3 µM (inactive) | 18.7 µM (inactive) |
| COc1ccc(N2C(=O)CC(=O)N(C(=O)CCCCCCCCC(=O)N3C(=O)CC(=O)N(c4ccc(OC)cc4)C3=S)C2=S)cc1 | > 100 µM (inactive) | > 100 µM (inactive) | 31.6 µM (inactive) | > 100 µM (inactive) | > 100 µM (inactive) | > 100 µM (inactive) | > 100 µM (inactive) | > 100 µM (inactive) | 65.2 µM (inactive) | > 100 µM (inactive) | > 100 µM (inactive) | > 100 µM (inactive) | > 100 µM (inactive) | > 100 µM (inactive) | 57.9 µM (inactive) | > 100 µM (inactive) | > 100 µM (inactive) | > 100 µM (inactive) | > 100 µM (inactive) | > 100 µM (inactive) |
| C1=CC2C(C3CN(c4ccccc4)N=C13)C1C3C4C=CC21C=CC43 (stereo not given) | > 100 µM (inactive) | > 100 µM (inactive) | > 69.3 µM (inactive) | > 100 µM (inactive) | > 100 µM (inactive) | > 100 µM (inactive) | > 100 µM (inactive) | 57.5 µM (inactive) | 97.5 µM (inactive) | 0.172 µM (active) | > 100 µM (inactive) | > 100 µM (inactive) | > 100 µM (inactive) | > 100 µM (inactive) | > 100 µM (inactive) | > 100 µM (inactive) | > 100 µM (inactive) | > 100 µM (inactive) | > 100 µM (inactive) | > 100 µM (inactive) |
| Cc1cc(/N=N/c2c(O)ccc3ccccc23)ccc1/N=N/c1cccc([N+](C)(C)C)c1 | 21 µM (inactive) | 12.1 µM (inactive) | 7.16 µM (inactive) | 17.6 µM (inactive) | 21.1 µM (inactive) | 9.82 µM (inactive) | 13.6 µM (inactive) | 9.64 µM (inactive) | 3.98 µM (inactive) | 16.1 µM (inactive) | 10.7 µM (inactive) | 5.71 µM (inactive) | 16 µM (inactive) | 7.83 µM (inactive) | 2.86 µM (inactive) | 21.3 µM (inactive) | 3.71 µM (inactive) | 10.1 µM (inactive) | 29.5 µM (inactive) | 1.58 µM (inactive) |
| CCCCCCCCCCCC[N+]12CC[N+](CCN)(CC1)CC2 | > 100 µM (inactive) | > 100 µM (inactive) | 73.6 µM (inactive) | > 100 µM (inactive) | 35 µM (inactive) | > 100 µM (inactive) | > 100 µM (inactive) | > 100 µM (inactive) | 86.5 µM (inactive) | 5.62 µM (inactive) | 37.2 µM (inactive) | 89.7 µM (inactive) | > 100 µM (inactive) | > 100 µM (inactive) | > 100 µM (inactive) | > 100 µM (inactive) | 20.8 µM (inactive) | > 100 µM (inactive) | 17.1 µM (inactive) | 34.5 µM (inactive) |
| CCOc1ccc(/C=C/c2cc(OC)c(OC)c(OC)c2)cc1 | 3.05 µM (inactive) | 1.08 µM (active) | 1.86 µM (inactive) | > 100 µM (inactive) | 1.14 µM (inactive) | 0.561 µM (active) | 0.841 µM (active) | 0.893 µM (active) | 0.429 µM (active) | 0.347 µM (active) | 2.18 µM (inactive) | 0.456 µM (active) | 0.83 µM (active) | 1.23 µM (inactive) | 0.556 µM (active) | 1.4 µM (inactive) | 4.36 µM (inactive) | 0.791 µM (active) | 8.83 µM (inactive) | 0.867 µM (active) |
